The assay has as its target T1, full-length TcPINK1 (1–570) (Tribolium castaneum, UniProt D6WMX4).
T1 construct: Kinetics of phosphorylation of PINKtide and indicated variants by full-length TcPINK1 (1–570); made in house; host or cells: E. coli BL21 Codon+
T1 sequence (D6WMX4 1-570): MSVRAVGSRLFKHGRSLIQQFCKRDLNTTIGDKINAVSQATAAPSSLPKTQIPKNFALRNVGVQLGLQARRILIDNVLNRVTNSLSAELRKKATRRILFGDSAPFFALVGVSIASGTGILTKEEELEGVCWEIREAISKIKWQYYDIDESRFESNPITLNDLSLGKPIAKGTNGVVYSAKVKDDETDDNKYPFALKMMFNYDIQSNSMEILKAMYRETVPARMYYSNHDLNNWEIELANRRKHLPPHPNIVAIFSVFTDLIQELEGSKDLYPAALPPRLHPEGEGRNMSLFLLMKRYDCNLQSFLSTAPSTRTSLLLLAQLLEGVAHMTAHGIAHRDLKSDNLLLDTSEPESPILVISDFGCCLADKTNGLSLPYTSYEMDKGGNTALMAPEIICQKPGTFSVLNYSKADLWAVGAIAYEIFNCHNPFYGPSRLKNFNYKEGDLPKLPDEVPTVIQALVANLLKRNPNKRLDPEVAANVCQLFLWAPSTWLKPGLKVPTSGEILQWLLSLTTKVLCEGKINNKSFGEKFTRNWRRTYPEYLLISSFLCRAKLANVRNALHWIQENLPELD
The experiment in a line: Peptide substrate kinase assay: phosphorylation of PINKtide and variants, [γ-32P] ATP, P81 paper. The note with it: phosphorylation of the peptide substrate by full-length TcPINK1 (1–570), kinase 1 µM, 0.1 mM [γ-32P] ATP, 30°C, n.d. = peptide phosphorylated poorly, kinetic values not determinable; for Km: 10 mM MgCl2, 50 mM Tris–HCl pH 7.5, 30 min, nonlinear regression (GraphPad Prism), similar results in at least two experiments; for Vmax: 30 min, 1 U = incorporation of 1 nmol of ATP into substrate, nonlinear regression. Format: biochemical. As for the experimental part:
For assays using peptide substrates, assays were set up in a volume of 50 µl, with all kinases at 1 µM and peptide substrates at the indicated concentrations in 50 mM Tris–HCl (pH 7.5), 0.1 mM EGTA, 10 mM MgCl2, 2 mM dithiothreitol and 0.1 mM [γ-^32P] ATP. Assays were incubated for 30 min at 30°C with shaking at 1200 r.p.m., and terminated by spotting of 40 µl of the reaction mixture onto P81 phosphocellulose paper and washing in 50 mM phosphoric acid. After extensive further washing, incorporation of [γ-^32P] ATP into substrates was quantified by Cerenkov counting. For MBP assays using P81 paper, 5 µg of MBP was used.
One unit of TcPINK1 activity was defined as the amount of enzyme that catalysed the incorporation of 1 nmol of ATP into a given substrate. Km and Vmax values were determined by analysing the phosphorylation of PINKtide and its variants at various concentrations. Km and Vmax values were calculated using the GRAPHPAD PRISM program.

Values joined by “and” are separate entries in the source; they are usually repeats but may differ in a detail not shown here. Equal values may be shown once.

In general, Km refers to the concentration of substrate that gives half-maximal velocity.

On to “KKAIpYRRSPRRR [PINKtide variant at the −5 position]”, for which the Km was determined as 435 µM and the Vmax is listed as 8 U mg^−1.
In the same order, the values of “KKEIpYRRSPRRR [PINKtide variant at the −5 position]” are 192 µM and 6 U mg^−1.
For “KKFIpYRRSPRRR [PINKtide variant at the −5 position]” the same measures were 163 µM and 3 U mg^−1.
“KKKIpYRRSPRRR [PINKtide variant at the −5 position]”: the Km amounted to 165 µM and the Vmax came to 2 U mg^−1.
In the same order, the values of “KKLIpYRRSPRRR [PINKtide variant at the −5 position]” are 381 µM and 5 U mg^−1.
For “KKWIERRSPRRR [PINKtide variant at the −3 position]” the same measures were 36 µM and 2 U mg^−1.
In the same order, the values of “KKWIFRRSPRRR [PINKtide variant at the −3 position]” are 63 µM and 2 U mg^−1.
On to “KKWIKRRSPRRR [PINKtide variant at the −3 position]”, for which the Km is 50 µM and the Vmax is 1 U mg^−1.
For “KKWISRRSPRRR [PINKtide variant at the −3 position]” the same measures were 81 µM and 3 U mg^−1.
In the same order, the values of “KKWITRRSPRRR [PINKtide variant at the −3 position]” are 278 µM and 3 U mg^−1.
In the same order, the values of “KKWIYRRSPRRR [PINKtide variant at the −3 position]” are 30 µM and 3 U mg^−1.
With “KKWIpSRRSPRRR [PINKtide variant at the −3 position]”, the Km worked out at 117 µM and the Vmax is given as 3 U mg^−1.
In the same order, the values of “KKWIpTRRSPRRR [PINKtide variant at the −3 position]” are 970 µM and 8 U mg^−1.
With “KKWIpYRRSPRRR [PINKtide, optimal peptide substrate for TcPINK1, KKWIpYRRSPRRR]”, the Km was 493 µM and ~500 µM.
“KKWIpYRRTPRRR [PINKtide variant, phosphorylated Ser changed to Thr]”: the Km is 756 µM and the Vmax amounted to 8 U mg^−1.

The values above are taken from publication PMC3352081, “Discovery of catalytically active orthologues of the Parkinson's disease kinase PINK1: analysis of substrate specificity and impact of mutations” (Open biology, 2011).
